Measured values taken from patent US8461150B2, “Chalcone linked pyrrolo[2,1-c][1, 4]benzodiazepine hybrids as potential anticancer agents and process for the preparation thereof” (Council of Scientific & Industrial Research, priority 2008, dated 2013).

System: duplex-form calf thymus DNA (CT-DNA)
Assay: Thermal denaturation studies with calf thymus DNA
Type: binding
Conditions: [PBD]:[DNA] molar ratio 1:5, CT-DNA 100 μM, ligand 20 μM, pH 7.00; for ΔTμ (° C.) after incubation at 37 °C. for 0 h: 0 h incubation; for ΔTμ (° C.) after incubation at 37 °C. for 18 h: 18 h incubation
Description: These compounds have also been subjected to thermal denaturation studies with duplex-form calf thymus DNA (CT-DNA) using an modification of a reported procedure. Working solutions in aqueous buffer (10 mM NaH2PO4/Na2HPO4, 1 mM Na2EDTA, pH 7.00+0.01) containing CT-DNA (100 μm in phosphate) and the PBD (20 μm) have been prepared by addition of concentrated PBD solutions in DMSO to obtain a fixed [PBD]/[DNA] molar ratio of 1:5. The DNA-PBD solutions have been incubated at 37° C. for 0 and 18 h prior to analysis. Samples have been monitored at 260 nm using a Beckman DU-800 spectrophotometer fitted with high performance temperature controller, and heated at 1° C. min^−1 in the 40-110° C. range. DNA helix→coil transition temperatures (Tm) have been obtained from the maxima in the d(A260)/d T derivative plots. Drug-induced alterations in DNA melting behavior are given by: ΔTm=Tm(DNA+PBD)−Tm(DNA alone), where the Tm value for the PBD-free CT-DNA is 68.5±0.01.

COc1cc(C=CC(=O)c2c(C)nc3ccccc3c2C)ccc1OCCCCCOc1cc2c(cc1OC)C(=O)N1CCC[C@H]1C=N2 [10c, 7-Methoxy-8-{5-[3-(4-hydroxy-3-methoxyphenyl)-1-(2,4-dimethyl-3-quinolyl)-2-propen-1-one]pentyl}-oxy-(11aS)-1,2,3,11a-5H-pyrrolo[2,1-c][1,4]benzodiazepin-5-one]
ΔTμ (° C.) after incubation at 37 °C. for 0 h: 4.7 °C
ΔTμ (° C.) after incubation at 37 °C. for 18 h: 5.1 °C

COc1cc(C=CC(=O)c2c(C)nc3ccccc3c2C)ccc1OCCCCCCOc1cc2c(cc1OC)C(=O)N1CCC[C@H]1C=N2 [10d, 7-Methoxy-8-{6-[3-(4-hydroxy-3-methoxyphenyl)-1-(2,4-dimethyl-3-quinolyl)-2-propen-1-one]hexyl}-oxy-(11aS)-1,2,3,11a-5H-pyrrolo[2,1-c][1,4]benzodiazepin-5-one]
ΔTμ (° C.) after incubation at 37 °C. for 0 h: 4.9 °C
ΔTμ (° C.) after incubation at 37 °C. for 18 h: 5.3 °C

COc1cc2c(cc1O)N=CC1CCCN1C2=O (stereo not drawn) [DC-81, reference compound]
ΔTμ (° C.) after incubation at 37 °C. for 0 h: 0.3 °C
ΔTμ (° C.) after incubation at 37 °C. for 18 h: 0.7 °C
